Among the data in patent US11708348B2, “Protease inhibitors for treatment of coronavirus infections” (The Scripps Research Institute, priority 2021, dated 2023) are EC50 values, retold here.

Usually EC50 stands for the concentration needed to bring the measured effect to its halfway point.

One assay relates to SARS-CoV-2 strain USA-WA1/2020. Kind of assay: microbe, parasite or virus in culture. To be noted: Severe acute respiratory syndrome coronavirus 2, HeLa-ACE2, 24 h, HeLa-ACE2 cells, SARS-CoV-2 infection, 24 h; bound printed in cell; read-out: EC50, uM (Hela). Format: cell-based.
For the molecule `C=C[C@@H]1C[C@]1(NC(=O)c1cc2cc(F)ccc2[nH]1)C(=O)N[C@@H](C[C@@H]1CCNC1=O)C(=O)COC(F)(F)F` [Compound 259, 5-fluoro-N-((1R,2S)-1-(((S)-3-oxo-1-((S)-2-oxopyrrolidin-3-yl)-4-(trifluoromethoxy)butan-2-yl)carbamoyl)-2-vinylcyclopropyl)-1H-indole-2-carboxamide], the EC50 is > 1 µM.

Still in this assay, the particulars now being: Severe acute respiratory syndrome coronavirus 2, HeLa-ACE2, 24 h, HeLa-ACE2 cells, SARS-CoV-2 infection, 24 h; class symbols; read-out: EC50, uM (Hela).
For `CC1(C)[C@@H]2[C@@H](C(=O)N[C@@H](C[C@@H]3CCNC3=O)C(=O)COC(F)(F)F)N(C(=O)[C@@H]3COCCO3)C[C@@H]21` [Compound 307, (1R,2S,5S)-3-((S)-1,4-dioxane-2-carbonyl)-6,6-dimethyl-N-((S)-3-oxo-1-((S)-2-oxopyrrolidin-3-yl)-4-(trifluoromethoxy)butan-2-yl)-3-azabicyclo[3.1.0]hexane-2-carboxamide], the EC50 fell in the range of 0.2 to 0.5 µM.
As for `CC(C)C[C@H](NC(=O)C(=O)Nc1c(C(C)C)cccc1C(C)C)C(=O)N[C@@H](C[C@@H]1CCNC1=O)C(=O)COC(F)(F)F` [Compound 159, Nl-(2,6-diisopropylphenyl)-N2-((S)-4-methyl-1-oxo-1-(((S)-3-oxo-1-((S)-2-oxopyrrolidin-3-yl)-4-(trifluoromethoxy)butan-2-yl)amino)pentan-2-yl)oxalamide], the EC50 was < 0.05 µM.
Consider `CC(C)C[C@H](NC(=O)C(=O)Nc1ccccc1F)C(=O)N[C@@H](C[C@@H]1CCNC1=O)C(=O)COc1cc(C(F)(F)F)on1` [Compound 141, N1-(2-fluorophenyl)-N2-((S)-4-methyl-1-oxo-1-(((S)-3-oxo-1-((S)-2-oxopyrrolidin-3-yl)-4-((5-(trifluoromethyl)isoxazol-3-yl)oxy)butan-2-yl)amino)pentan-2-yl)oxalamide], for which the EC50 is 0.5 to 1 µM.
For the molecule `CC(C)C[C@H](NC(=O)C(=O)Nc1cccc(F)c1F)C(=O)N[C@@H](C[C@@H]1CCNC1=O)C(=O)COc1c(F)c(F)cc(F)c1F` [Compound 71, N1-(2,3-difluorophenyl)-N2-((S)-4-methyl-1-oxo-1-(((S)-3-oxo-1-((S)-2-oxopyrrolidin-3-yl)-4-(2,3,5,6-tetrafluorophenoxy)butan-2-yl)amino)pentan-2-yl)oxalamide], the 50% effective concentration (EC50) was in the range of 0.05 to 0.2 µM.
Same read-out and setting: with `CC(C)(C)CC(O)C(=O)N1C[C@@H]2CCC[C@@H]2[C@H]1C(=O)N[C@@H](C[C@@H]1CCNC1=O)C(=O)COC(F)(F)F` (stereo partly drawn) [Compound 348, (1S,3aR,6aS)-2-(2-hydroxy-4,4-dimethylpentanoyl)-N-((S)-3-oxo-1-((S)-2-oxopyrrolidin-3-yl)-4-(trifluoromethoxy)butan-2-yl)octahydrocyclo-penta[c]pyrrole-1-carboxamide] the figure was < 0.05 µM; with `CC1(NC(=O)C(=O)N[C@@H](CC2CC2)C(=O)N[C@@H](C[C@@H]2CCNC2=O)C(=O)COC(F)(F)F)CCOCC1` [Compound 222, N1-((S)-3-cyclopropyl-1-oxo-1-(((S)-3-oxo-1-((S)-2-oxopyrrolidin-3-yl)-4-(trifluoromethoxy)butan-2-yl)amino)propan-2-yl)-N2-(4-methyltetrahydro-2H-pyran-4-yl)oxalamide], 0.05 to 0.2 µM.
Take `CC(C)(C)[C@H](NC(=O)[C@H]1CCCO1)C(=O)N1C[C@H]2[C@@H]([C@H]1C(=O)N[C@@H](C[C@@H]1CCNC1=O)C(=O)COC(F)(F)F)C2(C)C` [Compound 290, (1R,2S,5S)-3-((S)-3,3-dimethyl-2-((R)-tetrahydrofuran-2-carboxamido)-butanoyl)-6,6-dimethyl-N-((S)-3-oxo-1-((S)-2-oxopyrrolidin-3-yl)-4-(trifluoromethoxy)butan-2-yl)-3-azabicyclo-[3.1.0]hexane-2-carboxamide]: the EC50 fell in the range of 0.2 to 0.5 µM.

Still in this assay, the particulars now being: Severe acute respiratory syndrome coronavirus 2, HeLa-ACE2, 24 h, HeLa-ACE2 cells, SARS-CoV-2 infection, 24 h; read-out: EC50, uM (Hela).
Turning to `CC(C)(F)C(O)C(=O)N1CC2(CC2)C[C@H]1C(=O)N[C@@H](C[C@@H]1CCNC1=O)C(=O)COC(F)(F)F` (stereo partly drawn) [Compound 762, (6S)-5-(3-fluoro-2-hydroxy-3-methylbutanoyl)-N-((S)-3-oxo-1-((S)-2-oxopyrrolidin-3-yl)-4-(trifluoromethoxy)butan-2-yl)-5-azaspiro[2.4]heptane-6-carboxamide], the half-maximal effective concentration (EC50) was in the range of 0.05 to 0.2 µM.
